Source: ChEMBL document CHEMBL1122669, “Hypolipidemic activity of phthalimide derivatives. 7. Structure-activity studies of indazolone analogues” (1984)

How the values were obtained:
Format in all cases: functional
[1] = test system: Mus musculus; test: Reduction of serum cholesterol in CF1 male mice on day 16 following 20 mg/kg/day i.p. administration.; conditions: route intraperitoneal
[2] = test system: Mus musculus; test: Reduction of serum cholesterol in CF1 male mice on day 9 following 20 mg/kg/day i.p. administration.; conditions: route intraperitoneal
[3] = test system: Mus musculus; test: Reduction of serum triglycerides in CF1 male mice on day 16 following 20 mg/kg/day i.p. administration.; conditions: route intraperitoneal
[4] = test system: Mus musculus; test: Hypolipidemic effects in CF1 male mice at a dose 150 mg/(kg day), ip, percent control of serum cholesterol was determined on day 16
[5] = test system: Mus musculus; test: Hypolipidemic effects in CF1 male mice at a dose 150 mg/(kg day), ip, percent control of serum triglyceride was determined on day 16
[6] = test system: Mus musculus; test: Hypolipidemic effects in CF1 male mice at a dose 150 mg/(kg day), ip,percent control of serum cholesterol was determined on day 9

SMILES | Serum cholesterol, percent of control [1] [%] | Serum cholesterol, percent of control [2] [%] | Serum triglycerides, % of control [3] [%] | Control [4] [%] | Control [5] [%] | Control [6] [%]
O=c1c2ccccc2[nH]n1Cc1ccccc1 | 72 | 83 | 58 | – | – | –
Oc1n[nH]c2ccccc12 | 80 | 96 | 75 | – | – | –
Cn1[nH]c2ccccc2c1=O | 69 | 92 | 72 | – | – | –
CCCCn1[nH]c2ccc(C)cc2c1=O | 97 | 95 | 81 | – | – | –
CCn1[nH]c2ccccc2c1=O | 71 | 98 | 71 | – | – | –
CC(=O)c1ccc(Cn2[nH]c3ccccc3c2=O)cc1 | 75 | 76 | 50 | – | – | –
CCCCn1[nH]c2cc(Cl)ccc2c1=O | 75 | 98 | 69 | – | – | –
CC(=O)CCn1[nH]c2ccccc2c1=O | 46 | 78 | 46 | – | – | –
CCCn1[nH]c2ccccc2c1=O | 68 | 92 | 77 | – | – | –
CC(=O)c1ccccc1Cn1[nH]c2ccccc2c1=O | 60 | 98 | 41 | – | – | –
O=c1c2ccccc2[nH]n1CCO | 83 | 97 | 63 | – | – | –
CCCCn1[nH]c2ccccc2c1=O | 46 | 92 | 44 | – | – | –
CC(=O)c1cccc(Cn2[nH]c3ccccc3c2=O)c1 | 70 | 86 | 56 | – | – | –
CCCCn1[nH]c2ccc(Cl)cc2c1=O | 74 | 76 | 83 | – | – | –
O=c1c2ccccc2[nH]n1CCCO | 83 | 96 | 72 | – | – | –
CCCCCn1[nH]c2ccccc2c1=O | 73 | 79 | 77 | – | – | –
CCOC(=O)n1[nH]c(=O)c2ccccc21 | 60 | 78 | 61 | – | – | –
CCOC(=O)n1c2ccccc2c(=O)n1CCC(=O)O | 77 | 88 | 70 | – | – | –
CCOC(=O)C(C)(C)Oc1ccc(Cl)cc1 [CLOFIBRATE] | – | – | – | 87 | 75 | 92
O=C1NC(=O)c2ccccc21 [PHTHALIMIDE] | 57 | 63 | 44 | – | – | –
